The values below are quoted from earlier work in patent publication US20190124865A1, “APPARATUS AND METHOD FOR INACTIVATING PLANT PATHOGENS WHILE STIMULATING PLANT GROWTH VIA SELECTIVE APPLICATION OF OXYGEN/OZONE GAS MIXTURES, AND CARBON DIOXIDE, IN A MULTI COMPARTMENT SYSTEM” (priority 2017, published 2019).

In one data set the test system is Aeromonas hydrophilia. To be noted: ozone 5% per volume admixed with oxygen.
The test system of the next data set is coliform bacteria. Particulars: ozone 5% per volume admixed with oxygen.
The test system of the next data set is fungal species. Particulars: ozone 5% by volume, given time.
The subject of the next data set is staphylococcus aureus. Particulars: ozone 5% per volume admixed with oxygen.
For data set [1] the following is noted: gaseous milieu, room temperature.
In another data set the test system is plants. To be noted: 30% increase in ambient carbon dioxide, in the order of 100 ppm to 150 ppm.

Regarding `O=[O+][O-]` [Ozone, ozone], the “inactivation of Aeromonas hydrophilia” value in the data set with Aeromonas hydrophilia was “rapidly inactivates”. Besides, in the data set on coliform bacteria, the “inactivation of coliform bacteria” value is recorded as “rapidly inactivates”. The “effect on fungal species” value in the data set on fungal species is “inexorable distress to any and all fungal species, leading to their demise”. Besides, the “inactivation of staphylococcus aureus” value in the data set on staphylococcus aureus is recorded as “rapidly inactivates”. Further, in data set [1], the “rate of reversion to pure oxygen” value is “about 50 % per hour”.

Take `O=C=O` [carbon dioxide]: the “increase in plant growth” value in the data set with plants is listed as 30%.
